The record followed here is patent US20260234112A1, “COMPOUNDS, COMPOSITIONS, AND METHODS OF USE THEREOF” (Type6 Therapeutics, Inc., priority 2023, published 2026).

The assay addresses T1, Cdk2(2-298) (Homo sapiens, UniProt P24941).
T1 construct: Biotinylated N-terminal avi-tagged Cdk2(2-298) or Cdk1(1-297) was immobilized
As to the kind of experiment: Surface Plasmon Resonance (SPR) compound interaction, Biacore 8K. In kind it is binding. The note with it: single-cycle kinetics (SCK, "S"), dissociation 1800 sec, read-out: Activity rating (KD). The method, then: Compound interaction was profiled using a Biacore 8K instrument (Cytiva). Biotinylated N-terminal avi-tagged Cdk2(2-298) or Cdk1(1-297) was immobilized on a series S sensor Chip SA at a capture level between 2500 RU and 3000 RU (Cdk2) or 7000 RU (Cdk1) in buffer (25 mM HEPES, 150 mM NaCl, 0.05% Tween20, pH 7.5). A compound dilution plate (8 concentrations, 3-fold dilution) in DMSO was prepared (100× assay concentration). From this plate, compound DMSO stock solution was transferred into buffer, yielding a final DMSO concentration of 1% in assay. The remaining buffer was supplemented with 1% DMSO. Compounds were injected in a series of increasing concentrations in multi-cycle kinetics (MCK, “M”) or single-cycle kinetics (SCK, “S”) mode at a flow rate of 30 μl/min for 120 sec and dissociation was profiled for 180 sec (MCK) or 1800 sec (SCK). Data were analysed using Biacore Insight Evaluation Software (Cytiva).
For the compound `O=S(=O)(Nc1ccc(Oc2ccncc2-c2ccnc(N[C@H]3CCCNC3)n2)cc1F)c1ccccc1Cl` [Compound 25, N-[2-Fluoro-4-[[3-[2-[[(3S)-3-piperidyl]amino]pyrimidin-4-yl]-4-pyridyl]oxy]phenyl] 2-chlorobenzenesulfonamide], the dissociation constant (Kd) was in the range of 11 to 100 nM.

In the case of `N[C@H]1CC[C@H](Nc2nccc(-c3cnccc3Oc3ccc(NS(=O)(=O)c4cccc5c4CCCC5)cc3F)n2)CC1` [Compound 57], the Kd was 100 to 1000 nM.

Regarding `CN(C)[C@H]1CC[C@H](Nc2nccc(-c3cnccc3Oc3ccc(NS(=O)(=O)c4ccccc4Cl)cc3F)n2)CC1` [Compound 78, N-[4-[[3-[2-[(1r,4r)(4-(N,N-Dimethylamino)cyclohexyl)amino]pyrimidin-4-yl]-4-pyridyl]oxy]-3-fluorophenyl] 2-chlorobenzenesulfonamide], the Kd was 11 to 100 nM.

On to `CC(C)(C)c1ccccc1S(=O)(=O)Nc1ccc(Oc2ccncc2-c2ccnc(N[C@H]3CC[C@H](N)CC3)n2)c(F)c1` [Compound 66, N-[4-[[3-[2-[(1r,4r)(4-Aminocyclohexyl)amino]pyrimidin-4-yl]-4-pyridyl]oxy]-3-fluorophenyl] 2-tert-butylbenzenesulfonamide], for which the Kd is 100 to 1000 nM.

For the compound `N[C@H]1CC[C@H](Nc2nccc(-c3cnccc3Oc3ccc(NS(=O)(=O)Cc4ccccc4)cc3F)n2)CC1` [Compound 44, N-[4-[[3-[2-[(1r,4r)(4-Aminocyclohexyl)amino]pyrimidin-4-yl]-4-pyridyl]oxy]-3-fluorophenyl] phenylmethanesulfonamide], the equilibrium dissociation constant (Kd) was 1000 to 5000 nM.

Turning to `N[C@H]1CC[C@H](Nc2nccc(-c3cc(C(F)(F)F)ccc3Oc3ccc(NS(=O)(=O)c4ccccc4Cl)cc3F)n2)CC1` [Compound 8, N-[4-[2-[2-[(1r,4r)(4-Aminocyclohexyl)amino]pyrimidin-4-yl]-4-(trifluoromethyl)phenoxy]-3-fluorophenyl] 2-chlorobenzenesulfonamide], the Kd was in the range of 11 to 100 nM.

In the case of `COCCNCCNc1nccc(-c2cnccc2Oc2ccc(NS(=O)(=O)c3ccccc3Cl)cc2F)n1` [Compound 104], the Kd lay in the range of 100 to 1000 nM.

Consider `NC(=O)c1ccc(S(=O)(=O)Nc2ccc(Oc3ccncc3-c3ccnc(N[C@H]4CC[C@H](N)CC4)n3)c(F)c2)cc1` [Compound 38, 4-(N-(4-((3-(2-(((1r,4r)-4-aminocyclohexyl)amino)pyrimidin-4-yl)pyridin-4-yl)oxy)-3-fluorophenyl)sulfamoyl) benzamide], for which the Kd lay in the range of 100 to 1000 nM.

On to `N[C@H]1CC[C@H](Nc2nccc(-c3cnccc3Oc3ccc(NS(=O)(=O)c4ccccc4)cc3F)n2)CC1` [Compound 37, N-[4-[[3-[2-[(1r,4r)(4-Aminocyclohexyl)amino]pyrimidin-4-yl]-4-pyridyl]oxy]-3-fluorophenyl] benzenesulfonamide], for which the Kd was in the range of 11 to 100 nM.

`N[C@H]1CC[C@H](Nc2nccc(-c3cccnc3Sc3ccc(NS(=O)(=O)c4ccccc4)cc3F)n2)CC1` [Compound 110, N-(4-((3-(2-(((1r,4r)-4-Aminocyclohexyl)amino)pyrimidin-4-yl)pyridin-2-yl)thio)-3-fluorophenyl) benzenesulfonamide]: the Kd is 11 to 100 nM.

Turning to `N[C@H]1CC[C@H](Nc2nccc(-c3cncnc3Oc3ccc(NS(=O)(=O)c4ccccc4Cl)cc3F)n2)CC1` [Compound 128, N-[4-[5-[2-[(1r,4r)(4-aminocyclohexyl)amino]pyrimidin-4-yl]pyrimidin-4-yl]oxy-3-fluorophenyl] 2-chlorobenzenesulfonamide], the Kd was no more than 10 nM.

With `CC(C)(C)c1ccc(-c2ccnc(N[C@H]3CC[C@H](N)CC3)n2)c(Oc2ccc(NS(=O)(=O)c3ccccc3Cl)cc2F)c1` [Compound 11, N-[4-[2-[2-[(1r,4r)(4-Aminocyclohexyl)amino]pyrimidin-4-yl]-5-(1,1-dimethylethyl)phenoxy]-3-fluorophenyl] 2-chlorobenzenesulfonamide], the dissociation constant (Kd) is 11 to 100 nM.

Regarding `O=S(=O)(Nc1ccc(Oc2ccncc2-c2ccnc(NCCOCCO)n2)c(F)c1)c1ccccc1Cl` [Compound 87], the dissociation constant (Kd) was in the range of 100 to 1000 nM.

`O=S(=O)(Nc1ccc(Oc2ncncc2-c2ccnc(N[C@H]3CCCNC3)n2)c(F)c1)c1ccccc1` [Compound 129, N-[3-fluoro-4-[5-[2-[[(3S)-3-piperidyl]amino]pyrimidin-4-yl]pyrimidin-4-yl]oxy-phenyl] benzenesulfonamide]: the Kd was in the range of 100 to 1000 nM.

Turning to `O=S(=O)(Nc1ccc(Oc2ccncc2-c2ccnc(NC3COC3)n2)c(F)c1)c1ccccc1Cl` [Compound 89], the Kd fell in the range of 11 to 100 nM.

As for `N[C@H]1CC[C@H](Nc2nccc(-c3cnccc3Oc3ccc(NS(=O)(=O)c4ccc(CO)cc4F)cc3F)n2)CC1` [Compound 81], the dissociation constant (Kd) lay within 100 to 1000 nM.

For `O=S(=O)(Nc1ccc(Oc2ccncc2-c2ccnc(NCCN3CCCC3)n2)c(F)c1)c1ccccc1Cl` [Compound 90], the dissociation constant Kd fell in the range of 100 to 1000 nM.

With `N[C@H]1CC[C@H](Nc2nccc(-c3cnccc3Oc3ccc(NS(=O)(=O)c4ccccc4)c(Br)c3)n2)CC1` [Compound 62, N-[4-[[3-[2-[(1r,4r)(4-Aminocyclohexyl)amino]pyrimidin-4-yl]-4-pyridyl]oxy]-2-bromophenyl] benzenesulfonamide], the Kd fell in the range of 100 to 1000 nM.

Consider `O=S(=O)(Nc1ccc(Oc2ccncc2-c2ccnc(NCCN3CCOCC3)n2)c(F)c1)c1ccccc1Cl` [Compound 86], for which the dissociation constant (Kd) was 100 to 1000 nM.

For the compound `O=S(=O)(Nc1ccc(Oc2ncncc2-c2ccnc(N[C@H]3CCCNC3)n2)c(F)c1)c1ccccc1Cl` [Compound 127, N-[3-fluoro-4-[5-[2-[[(3S)-3-piperidyl]amino]pyrimidin-4-yl]pyrimidin-4-yl]oxyphenyl] 2-chlorobenzenesulfonamide], the equilibrium dissociation constant (Kd) fell in the range of 11 to 100 nM.

`N[C@H]1CC[C@H](Nc2nccc(-c3cnccc3Oc3ccc(NS(=O)(=O)c4ccccc4Cl)c(F)c3)n2)CC1` [Compound 79, N-[4-[[3-[2-[(1r,4r)(4-Aminocyclohexyl)amino]pyrimidin-4-yl]-4-pyridyl]oxy]-2-fluorophenyl] 2-chlorobenzenesulfonamide]: the equilibrium dissociation constant (Kd) was no more than 10 nM.

Take `COc1ccccc1S(=O)(=O)Nc1ccc(Oc2ccncc2-c2ccnc(N[C@H]3CC[C@H](N)CC3)n2)c(F)c1` [Compound 27, N-(4-((3-(2-((1r,4r)-4-aminocyclohexyl)amino)pyrimidin-4-yl)pyridin-4-yloxy)-3-fluorophenyl) 2-methoxybenzenesulfonamide]: the dissociation constant (Kd) was 11 to 100 nM.

As to `CN(CCNc1nccc(-c2cnccc2Oc2ccc(NS(=O)(=O)c3ccccc3Cl)cc2F)n1)S(C)(=O)=O` [Compound 100], the Kd is no more than 10 nM.

With `N[C@H]1CC[C@H](Nc2nccc(-c3cccnc3Sc3ccc(NS(=O)(=O)c4cccc5ccccc45)cc3F)n2)CC1` [Compound 111, N-(4-((3-(2-(((1r,4r)-4-Aminocyclohexyl)amino)pyrimidin-4-yl)pyridin-2-yl)thio)-3-fluorophenyl) naphthalene-1-sulfonamide], the Kd was in the range of 11 to 100 nM.

As for `N[C@H]1CC[C@H](Nc2nccc(-c3ccccc3Oc3ccc(NS(=O)(=O)c4ccccc4)cc3F)n2)CC1` [Compound 1, N-[4-[2-[2-[(1r,4r)(4-Aminocyclohexyl)amino]pyrimidin-4-yl]phenoxy]-3-fluoro-phenyl] benzenesulfonamide], the dissociation constant Kd was 11 to 100 nM.

For the compound `Cc1ccccc1S(=O)(=O)Nc1ccc(Oc2ccncc2-c2ccnc(N[C@H]3CC[C@H](N)CC3)n2)c(F)c1` [Compound 54, N-[4-[[3-[2-[(1r,4r)(4-Aminocyclohexyl)amino]pyrimidin-4-yl]-4-pyridyl]oxy]-3-fluorophenyl] 2-methylbenzenesulfonamide], the equilibrium dissociation constant (Kd) lay in the range of 11 to 100 nM.

`Cc1ccc(C#N)cc1S(=O)(=O)Nc1ccc(Oc2ccncc2-c2ccnc(N[C@H]3CC[C@H](N)CC3)n2)c(F)c1` [Compound 35, N-(4-((3-(2-(((1r,4r)-4-aminocyclohexyl)amino)pyrimidin-4-yl)pyridin-4-yl)oxy)-3-fluorophenyl) 5-cyano-2-methylbenzenesulfonamide]: the Kd is 11 to 100 nM.

For `N[C@H]1CC[C@H](Nc2nccc(-c3cnccc3Sc3ccc(NS(=O)(=O)c4ccccc4)cc3F)n2)CC1` [Compound 117, N-[4-(1r,4r)[[3-[2-[(4-aminocyclohexyl)amino]pyrimidin-4-yl]-4-pyridyl]sulfanyl]-3-fluorophenyl] benzenesulfonamide], the Kd lay in the range of 11 to 100 nM.

With `CCc1ccc(-c2ccnc(N[C@H]3CC[C@H](N)CC3)n2)c(Oc2ccc(NS(=O)(=O)c3ccccc3Cl)cc2F)c1` [Compound 17, N-[4-[2-[2-[(1r,4r)(4-Aminocyclohexyl)amino]pyrimidin-4-yl]-5-ethylphenoxy]-3-fluorophenyl] 2-chlorobenzenesulfonamide], the equilibrium dissociation constant (Kd) was in the range of 11 to 100 nM.

Turning to `O=S(=O)(Nc1ccc(Oc2ccncc2-c2ccnc(NC3COC3)n2)c(F)c1)c1ccccc1Cl` [Compound 88], the Kd is no more than 10 nM.

Turning to `N[C@H]1CC[C@H](Nc2nccc(-c3cnccc3Oc3ccc(NS(=O)(=O)c4ccccc4-c4ccccc4)cc3F)n2)CC1` [Compound 72, N-[4-[[3-[2-(1r,4r)[(4-Aminocyclohexyl)amino]pyrimidin-4-yl]-4-pyridyl]oxy]-3-fluorophenyl] 2-phenylbenzenesulfonamide], the Kd was in the range of 11 to 100 nM.

For the compound `O=S(=O)(Nc1ccc(Oc2ccncc2-c2ccnc(NC3CN(CCO)C3)n2)c(F)c1)c1ccccc1Cl` [Compound 106], the Kd is 100 to 1000 nM.
